Experiments:
[1] = Toxicity study in the mouse, oral single dose (LD50); format: in vivo; settings: for toxicity: summary in conclusion
Description: The toxicity study was carried out in the conventional mouse, weighing about 20 g.
The substances were administered orally in a single dose of 300 and 1000 mg/kg respectively. At these doses we were not able to determine the LD50 's which are higher >1000 mg/kg.

[2] = Anxiolytic activity, group of tests (LAB-X elevated plus-maze, SKINNER, VOGEL); format: in vivo, rat; settings: 30 mg/kg by mouth
From the text: These compounds were also studied in order to test for anxiolytic activity using a group of tests
(Ref.: LAB-X: Sh. Pellow, Ph. Chopin, S. E. File and M. Briley--Validation of open:closed arm entries in an elevated plus-maze as a measure of anxiety in the rat (Journal of Neuroscience Methods, 14 (1983), 149-167)
SKINNER: GELLER and SEIFTER, Psychopharmacologia (1960) 1, 482-492

5 HTP = assay: Potentialization of 5 HTP; format: in vivo
From the text: The tests used for the pharmacological screening are:
the potentialization of 5 HTP (Ref.: Christensen, A. V. et al., Eur. J. of Pharm. (1977), 41, 153-162)

Solubility = format: physicochemical

solubility in methylene chloride (Solubility) | solubility in water (Solubility) | solubility in alcohols (Solubility; alcohols) | solubility in acetic acid (Solubility) | SMILES | toxicity [1] | anxiolytic activity [2] | ED50 (5 HTP) [mg/kg] | solubility in chloroform (Solubility) | other results
Soluble | insoluble | – | – | CC(C)C(=O)Cn1ncc(-c2ccccc2)nc1=O [Example 22, 2-(3-methyl-2-one butyl) 5-phenyl as.-triazine] | – | significant results | – | Soluble | solubility in alcohols in the hot (Solubility; alcohols, in the hot): soluble
Soluble | insoluble | – | – | COc1ccccc1-c1cnn(CC(C)=O)c(=O)n1 [Example 23, 2-acetonyl 3-oxo 5-o-methoxyphenyl as.-triazine] | – | – | 50 | Soluble | solubility in ether (Solubility): insoluble
– | insoluble | – | Soluble | COc1ccc(-c2cnn(CC(=O)c3ccccc3)c(=O)n2)cc1 [Example 37, 2-Phenacyl 3-oxo 5-p.methoxyphenyl as triazine] | – | – | – | – | –
– | Insoluble | Insoluble | Soluble | COc1ccc(-c2cnn(CC(=O)c3ccc(C)cc3)c(=O)n2)cc1 [Example 38, 2-p.methylphenacyl 3-oxo 5-p.methoxyphenyl as triazine] | – | – | – | – | –
– | Insoluble | Insoluble | Soluble | CCC(=O)Cn1ncc(-c2ccc(OC)cc2)nc1=O [Example 41, 2-(oxo-2' butyl) 3-oxo 5-p.methoxyphenyl as triazine] | – | – | – | – | –

Second part, the compound before the results:

SMILES | solubility in methylene chloride (Solubility) | solubility in water (Solubility) | solubility in alcohols (Solubility; alcohols) | solubility in acetic acid (Solubility) | toxicity [1] | anxiolytic activity [2] | ED50 (5 HTP) [mg/kg] | solubility in chloroform (Solubility) | other results
COc1ccc(-c2cnn(CC(C)=O)c(=O)n2)cc1 [Example 1, 2-acetonyl 3-oxo 5-p-methoxyphenyl ax.-triazine] | – | – | – | – | very low toxicity | significant results | 25 | – | LD50 ([1]; in vivo, mouse, oral, single dose): > 3000 mg/kg
COc1ccc(-c2cnn(C(C)C(C)=O)c(=O)n2)cc1 (stereo not drawn) [Example 4, 2-alpha-methylacetonyl 3-oxo 5-p-methoxyphenyl as.-triazine] | Soluble | insoluble | – | – | very low toxicity | significant results | 35 | Soluble | –
CC(=O)COc1ccc(-c2cnn(C)c(=O)n2)cc1 [Example 9, 2-methyl 3-oxo 5-p-acetonoxyphenyl as.-triazine] | Soluble | insoluble | – | – | – | significant results | 40 | insoluble | solubility in aqueous dilute acids (Solubility; aqueous dilute acids): Soluble
COc1ccc(-c2cnn(C3CCOC3=O)c(=O)n2)cc1 (stereo not drawn) [Example 21, 2-γ-butyrolactone 3-oxo 5-p-methoxyphenyl as.-triazine] | Soluble | insoluble | poorly soluble | – | very low toxicity | significant results | 27 | Soluble | solubility in benzene (Solubility; benzene): poorly soluble
COc1ccc(-c2cnn(CC(N)=O)c(=O)n2)cc1 [Example 32, 2-N-acetamido 3-oxo 5-p-methoxyphenyl as.-triazine] | – | Insoluble | Insoluble | – | very low toxicity | – | 20 | Insoluble | solubility in ether (Solubility): Insoluble
COc1ccc(-c2cnn(CC(=O)c3ccc(Cl)cc3Cl)c(=O)n2)cc1 [Example 39, 2-(dichloro-2,4 phenacyl) 3-oxo 5-p.methoxyphenyl as triazine] | – | Insoluble | Insoluble | Soluble | – | – | – | – | –
COc1ccc(C(=O)Cn2ncc(-c3ccc(OC)cc3)nc2=O)cc1 [Example 40, 2-p.methoxyphenacyl 3-oxo 5-p.methoxyphenyl as triazine] | – | Insoluble | Insoluble | Insoluble | – | – | – | – | –
